How the values were obtained:
[1] = target: T1, RNA-dependent DNA polymerase activity of HIV reverse transcriptase (Human immunodeficiency virus type 1 group M subtype B, UniProt P03366); test: RNA-dependent DNA polymerase activity assay of HIV reverse transcriptase; type: biochemical, HIV-1; conditions: 10 μM inhibitor concentration, activity in presence / in absence of analog x 100
T1 construct: made in house
Protocol: In separate representative assays, mappicine analogs were tested for their ability to inhibit the RNA-dependent DNA polymerase activity of HIV reverse transcriptase and for their ability to inhibit the RNase H activity of HIV reverse transcriptase. The assay for RNA-dependent DNA polymerase activity is discussed in Borkow, G. et al., “Inhibition of the Ribonuclease H and DNA Polymerase Activities of HIV-1 Reverse Transcriptase by N-(4-tert-Butylbenzoyl)-2-hydroxy-1-naphthaldehyde Hydrazone,” Biochemistry 1997, 36, 3179-3185, a copy of which is attached hereto and the disclosure of which is incorporated herein by reference. Assays were carried out in the absence and in the presence of mappicine analogs (10 μM final concentration). The results are reported as % residual activity, which is the RNA-dependent DNA polymerase activity of the enzyme in the presence of the mappicine analog divided by the RNA-dependent activity of the enzyme in the absence of the mappicine analog, multiplied by 100.

[2] = target: T2, RNase H activity of HIV reverse transcriptase (Human immunodeficiency virus type 1 group M subtype B, UniProt P03366); test: Fluorescence (FRET)-based RNase H assay of HIV reverse transcriptase; type: biochemical, HIV-1; conditions: 10 μM inhibitor concentration, activity in presence / in absence of analog x 100
T2 construct: 2.5 nM of the p51/p66 RT heterodimer in the assay; made in house

Structure (SMILES)	Residual activity (%) Polymerase [1] [%]	Residual activity (%) RNase H [2] [%]	remaining activity at 10 µM ([1]; read-out: Residual activity (%) Polymerase) [%]	remaining activity at 10 µM ([2]; read-out: Residual activity (%) RNase H) [%]
CCC(=O)c1cc2n(c(=O)c1C)Cc1c-2nc2ccc(OC)cc2c1-c1ccccc1 [5 (3Dακ)]	76	104		
Cc1ccc2nc3c(c([Si](C)(C)C)c2c1)Cn1c-3cc(C(O)C(C)(C)C)c(C)c1=O (centres unmarked) [5 (5Cβ)]	72	80		
CCC(=O)c1cc2n(c(=O)c1C)Cc1c-2nc2ccc(F)cc2c1[Si](C)(C)C(C)(C)C [5 (4Bακ)]	42	77		
Cc1c(C(O)Cc2ccccc2)cc2n(c1=O)Cc1c-2nc2ccccc2c1-c1ccccc1 (centres unmarked) [5 (3Aε)]	34	99		
Cc1c(C(=O)C(C)(C)C)cc2n(c1=O)Cc1c-2nc2ccccc2c1[Si](C)(C)C [5 (5Aβκ)]	47	97		
COc1ccc2nc3c(c(-c4ccccc4)c2c1)Cn1c-3cc(C(O)C(C)(C)C)c(C)c1=O (centres unmarked) [5 (3Dβ)]	85	70		
Cc1c(C(=O)CCC2CCCCC2)cc2n(c1=O)Cc1c-2nc2ccc(F)cc2c1[Si](C)(C)C(C)(C)C [5 (4Bδκ)]	56	96		
CCc1c2c(nc3ccc(NC(=O)OC(C)(C)C)cc13)-c1cc(C(O)CC)c(C)c(=O)n1C2 (centres unmarked) [5 (AG 5M), 2-tert-Butyloxycarbonylamino-12-ethyl-7-(1-hydroxypropyl)-8-methyl-11H-indolizino[1,2-b]quinolin-9-one]			87	68
Cc1ccc2nc3c(c(-c4ccccc4)c2c1)Cn1c-3cc(C(=O)C(C)(C)C)c(C)c1=O [5 (3Cβκ)]	63	96		
Cc1ccc2nc3c(c([Si](C)(C)C)c2c1)Cn1c-3cc(C(O)Cc2ccccc2)c(C)c1=O (centres unmarked) [5 (5Cε)]	87	93		
CCCCCCc1c2c(nc3ccccc13)-c1cc(C(=O)Cc3ccccc3)c(C)c(=O)n1C2 [5 (8Aεκ)]	59	92		
Cc1ccc2nc3c(c(-c4ccccc4)c2c1)Cn1c-3cc(C(O)CCC2CCCCC2)c(C)c1=O (centres unmarked) [5 (30δ)]	74	93		
CCCCCCc1c2c(nc3ccc(OC)cc13)-c1cc(C(O)C(C)(C)C)c(C)c(=O)n1C2 (centres unmarked) [5 (8Dβ)]	68	67		
Cc1c(C(O)Cc2ccccc2)cc2n(c1=O)Cc1c-2nc2ccc(F)cc2c1-c1ccccc1 (centres unmarked) [5 (3Bε)]	28	91		
CCC(=O)c1cc2n(c(=O)c1C)Cc1c-2nc2ccc(F)cc2c1[Si](C)(C)C [5 (5Bακ)]	74	89		
CCC(O)c1cc2n(c(=O)c1C)Cc1c-2nc2ccccc2c1[Si](C)(C)C(C)(C)C (centres unmarked) [5 (4Aα)]	67	104		
Cc1c(C(O)CCC2CCCCC2)cc2n(c1=O)Cc1c-2nc2ccc(F)cc2c1[Si](C)(C)C (centres unmarked) [5 (5Bδ)]	78	103		
CCCCCCc1c2c(nc3ccc(C)cc13)-c1cc(C(O)Cc3ccccc3)c(C)c(=O)n1C2 (centres unmarked) [5 (8Cε)]	76	76		
CCCCCCc1c2c(nc3ccc(F)cc13)-c1cc(C(O)C(C)(C)C)c(C)c(=O)n1C2 (centres unmarked) [5 (8Bβ)]	50	97		
Cc1c(C(O)C(C)(C)C)cc2n(c1=O)Cc1c-2nc2ccc(F)cc2c1-c1ccccc1 (centres unmarked) [5 (3Bβ)]	78	75		
CCC(O)c1cc2n(c(=O)c1C)Cc1c-2nc2ccc(F)cc2c1[Si](C)(C)C (centres unmarked) [5 (5Bα)]	82	105		
CCC(O)c1cc2n(c(=O)c1C)Cc1c-2nc2ccc(C)cc2c1[Si](C)(C)C (centres unmarked) [5 (5Cα)]	68	62		

From patent US20040077674A1, “Mappicine analogs, intermediates in the synthesis of mappicine analogs and methods of synthesis of mappicine analogs” (priority 2002, published 2004)
